For assay [1], the target named is Met (phospho-Met, HGF-stimulated PC-3 prostate cancer cells) (Homo sapiens (Human), UniProt P08581). In words: Met autophosphorylation ELISA in PC-3 cells (Example F). Type of assay: cell-based. Conditions: cellular activity; Met autophosphorylation ELISA in PC-3 cells; read-out: c-Met IC50. An outline of the steps: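 IC50 values derive from a 4-parameter logistic fit of phospho-Met (panTyr) sandwich ELISA signals in PC-3 lysates, scaled between DMSO and reference-inhibitor wells. Cells, starved 3 h in serum-free medium, had 1 h compound exposure (8 doses, 0.3% DMSO) before 10 min stimulation with 100 ng/mL HGF.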
Met (phospho-Met, HGF-stimulated PC-3 prostate cancer cells), sequence (P08581 25-1390): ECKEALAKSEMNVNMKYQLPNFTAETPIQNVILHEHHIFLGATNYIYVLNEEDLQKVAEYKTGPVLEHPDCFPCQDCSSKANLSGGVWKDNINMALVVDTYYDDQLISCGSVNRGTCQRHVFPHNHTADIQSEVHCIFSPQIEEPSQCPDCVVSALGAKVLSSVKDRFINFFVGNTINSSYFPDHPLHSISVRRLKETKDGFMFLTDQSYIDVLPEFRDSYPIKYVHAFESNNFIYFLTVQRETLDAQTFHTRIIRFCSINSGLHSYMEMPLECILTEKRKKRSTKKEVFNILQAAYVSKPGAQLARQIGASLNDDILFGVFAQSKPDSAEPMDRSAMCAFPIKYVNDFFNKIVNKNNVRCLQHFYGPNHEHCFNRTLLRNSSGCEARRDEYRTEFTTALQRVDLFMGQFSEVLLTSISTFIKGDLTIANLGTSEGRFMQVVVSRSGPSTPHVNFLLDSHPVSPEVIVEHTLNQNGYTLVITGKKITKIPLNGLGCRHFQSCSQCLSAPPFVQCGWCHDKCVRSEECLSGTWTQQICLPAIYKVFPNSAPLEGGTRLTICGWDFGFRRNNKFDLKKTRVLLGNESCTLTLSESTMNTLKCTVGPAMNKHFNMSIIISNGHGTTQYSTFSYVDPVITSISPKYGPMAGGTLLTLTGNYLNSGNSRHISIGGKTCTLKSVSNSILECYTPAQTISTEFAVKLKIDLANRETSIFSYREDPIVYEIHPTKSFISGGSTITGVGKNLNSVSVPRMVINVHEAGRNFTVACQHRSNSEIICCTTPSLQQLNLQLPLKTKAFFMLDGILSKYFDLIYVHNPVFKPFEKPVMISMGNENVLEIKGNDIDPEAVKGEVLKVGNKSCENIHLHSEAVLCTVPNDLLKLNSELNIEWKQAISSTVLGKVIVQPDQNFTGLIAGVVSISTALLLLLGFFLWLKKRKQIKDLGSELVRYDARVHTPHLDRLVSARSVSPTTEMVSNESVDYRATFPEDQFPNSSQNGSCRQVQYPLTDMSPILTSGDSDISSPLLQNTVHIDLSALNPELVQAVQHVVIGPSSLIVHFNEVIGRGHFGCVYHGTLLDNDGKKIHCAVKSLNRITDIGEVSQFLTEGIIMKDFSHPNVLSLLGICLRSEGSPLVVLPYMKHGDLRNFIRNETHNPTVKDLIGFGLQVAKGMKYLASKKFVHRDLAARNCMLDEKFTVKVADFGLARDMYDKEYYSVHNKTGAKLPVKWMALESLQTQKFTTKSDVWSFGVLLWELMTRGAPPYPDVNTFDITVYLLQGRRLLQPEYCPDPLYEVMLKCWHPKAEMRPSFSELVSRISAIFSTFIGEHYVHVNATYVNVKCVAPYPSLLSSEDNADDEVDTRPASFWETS

For assay [2], the target named is Human KDR (residues 790-1356) (Homo sapiens (Human), UniProt P35968). In words: Human KDR kinase assay, HTRF KinEase (Example B-2). Type of assay: biochemical. Conditions: protocol of Example B-2. An outline of the steps: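 Human KDR residues 790-1356 (0.1 ng/well) in buffer with 5 mM MgCl2, 1 mM MnCl2, 1 mM DTT, biotinylated peptide substrate, ATP at Km (4.0 μM), 3% DMSO, 10 compound concentrations; 40 min, room temperature. EDTA stop, streptavidin-XL665/Eu-TK antibody HTRF read 665/620 nm; 4-parameter IC50.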
Human KDR (residues 790-1356), sequence (P35968 790-1356): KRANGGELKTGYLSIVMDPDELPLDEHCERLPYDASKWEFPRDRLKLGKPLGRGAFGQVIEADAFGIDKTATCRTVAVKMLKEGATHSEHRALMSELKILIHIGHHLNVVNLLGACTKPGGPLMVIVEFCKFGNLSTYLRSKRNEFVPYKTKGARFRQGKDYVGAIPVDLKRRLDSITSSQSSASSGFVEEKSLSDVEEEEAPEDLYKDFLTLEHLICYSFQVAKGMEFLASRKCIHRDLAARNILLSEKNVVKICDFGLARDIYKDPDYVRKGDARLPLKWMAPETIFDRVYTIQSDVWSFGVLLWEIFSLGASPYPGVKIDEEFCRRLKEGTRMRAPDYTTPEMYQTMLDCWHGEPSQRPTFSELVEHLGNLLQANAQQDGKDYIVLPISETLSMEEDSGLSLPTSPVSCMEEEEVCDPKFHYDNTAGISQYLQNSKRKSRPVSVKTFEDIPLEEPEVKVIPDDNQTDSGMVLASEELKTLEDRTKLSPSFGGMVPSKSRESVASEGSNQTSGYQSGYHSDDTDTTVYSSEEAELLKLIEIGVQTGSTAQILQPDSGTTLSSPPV

Drawing on patent US12371428B2 (Exelixis, Inc., priority 2019, dated 2025), this text covers IC50 for 24 molecules.

For the molecule `CCc1ncc(C(=O)Nc2ccc(Oc3ccnc4cc(OC)c(OC)nc34)c(F)c2)c(O)c1-c1ccc(F)cc1` [Compound 504, N-[4-[(6,7-dimethoxy-1,5-naphthyridin-4-yl)oxy]-3-fluorophenyl]-6-ethyl-5-(4-fluorophenyl)-4-hydroxypyridine-3-carboxamide], the 50% inhibitory concentration (IC50) in assay [1] and in assay [2] was < 100 nM throughout.

In the case of `Cc1cc(F)ccc1-c1c(C)nc(C)c(C(=O)Nc2ccc(Oc3ccnc4cccnc34)c(F)c2)c1O` [Compound 505, 5-(4-fluoro-2-methylphenyl)-N-[3-fluoro-4-(1,5-naphthyridin-4-yloxy)phenyl]-4-hydroxy-2,6-dimethylpyridine-3-carboxamide], the IC50 in assay [1] was < 100 nM; in assay [2], > 300 nM.

In the case of `Cc1ccc2nccc(Oc3ccc(NC(=O)c4c(C)nc(C)c(-c5ccc(F)cc5C)c4O)cc3F)c2n1` [Compound 506, N-[3-fluoro-4-[(6-methyl-1,5-naphthyridin-4-yl)oxy]phenyl]-5-(4-fluoro-2-methylphenyl)-4-hydroxy-2,6-dimethylpyridine-3-carboxamide], the IC50 in assay [1] is < 100 nM; in assay [2], > 300 nM.

In the case of `COc1cnc2c(Oc3ccc(NC(=O)c4c(C)n(C)c(C)c(-c5ccc(F)cc5)c4=O)cc3F)ccnc2c1` [Compound 508, N-[3-fluoro-4-[(7-methoxy-1,5-naphthyridin-4-yl)oxy]phenyl]-5-(4-fluorophenyl)-1,2,6-trimethyl-4-oxopyridine-3-carboxamide], the IC50 in assay [1] is < 100 nM; in assay [2] it was > 300 nM.

With `CCc1nc(C)c(-c2ccc(F)cc2)c(O)c1C(=O)Nc1ccc(Oc2ccnc3ccc(OC)nc23)cc1` [Compound 509, 2-ethyl-5-(4-fluorophenyl)-4-hydroxy-N-[4-[(6-methoxy-1,5-naphthyridin-4-yl)oxy]phenyl]-6-methylpyridine-3-carboxamide], the IC50 in assay [1] and in assay [2] was < 100 nM in each case.

For `COCc1nc(C)c(-c2ccc(F)cc2)c(O)c1C(=O)Nc1ccc(Oc2ccnc3ccc(OC)nc23)cc1` [Compound 510, 5-(4-fluorophenyl)-4-hydroxy-2-(methoxymethyl)-N-[4-[(6-methoxy-1,5-naphthyridin-4-yl)oxy]phenyl]-6-methylpyridine-3-carboxamide], the IC50 in assay [1] was < 100 nM; in assay [2], 100 to 300 nM.

Take `COc1cc2nccc(Oc3ccc(NC(=O)c4c(C)n(C)c(C)c(-c5ccc(F)cc5)c4=O)cc3F)c2nc1OC` [Compound 511, N-[4-[(6,7-dimethoxy-1,5-naphthyridin-4-yl)oxy]-3-fluorophenyl]-5-(4-fluorophenyl)-1,2,6-trimethyl-4-oxopyridine-3-carboxamide]: the figures for the IC50 in assay [1] and in assay [2] were < 100 nM and 100 to 300 nM, respectively.

Take `COc1cc2nccc(Oc3ccc(NC(=O)c4nn(C)c(C)c(-c5ccc(F)cc5C)c4=O)cc3F)c2nc1OC` [Compound 512, N-[4-[(6,7-dimethoxy-1,5-naphthyridin-4-yl)oxy]-3-fluorophenyl]-5-(4-fluoro-2-methylphenyl)-1,6-dimethyl-4-oxopyridazine-3-carboxamide]: the IC50 in assay [1] and in assay [2] was < 100 nM each time.

For the molecule `COc1cnc2c(Oc3ccc(NC(=O)c4nn(C)c(C)c(-c5ccc(F)cc5C)c4=O)cc3F)ccnc2c1` [Compound 513, N-[3-fluoro-4-[(7-methoxy-1,5-naphthyridin-4-yl)oxy]phenyl]-5-(4-fluoro-2-methylphenyl)-1,6-dimethyl-4-oxopyridazine-3-carboxamide], the IC50 in assay [1] and in assay [2] was < 100 nM each time.

`COc1cnc2c(Oc3ccc(NC(=O)c4nn(C)c(C)c(-c5ccc(F)cc5C)c4=O)cc3)ccnc2c1` [Compound 514, 5-(4-fluoro-2-methylphenyl)-N-[4-[(7-methoxy-1,5-naphthyridin-4-yl)oxy]phenyl]-1,6-dimethyl-4-oxopyridazine-3-carboxamide]: the IC50 in assay [1] and in assay [2] was < 100 nM each time.

Regarding `COc1cnc2c(Oc3ccc(NC(=O)c4nnc(C)c(-c5ccc(F)cc5)c4OC)cc3)ccnc2c1` [Compound 515, 5-(4-fluorophenyl)-4-methoxy-N-[4-[(7-methoxy-1,5-naphthyridin-4-yl)oxy]phenyl]-6-methylpyridazine-3-carboxamide], the IC50 in assay [1] and in assay [2] was < 100 nM in each case.

For the molecule `COCc1nc(C)c(-c2ccc(F)cc2C)c(O)c1C(=O)Nc1ccc(Oc2ccnc3ccc(OC)nc23)cc1` [Compound 516, 5-(4-fluoro-2-methylphenyl)-4-hydroxy-2-(methoxymethyl)-N-[4-[(6-methoxy-1,5-naphthyridin-4-yl)oxy]phenyl]-6-methylpyridine-3-carboxamide], the IC50 in assay [1] is < 100 nM; in assay [2], > 300 nM.

`COc1cc2nccc(Oc3ccc(NC(=O)c4nn(C)c(C)c(-c5ccc(F)cc5C)c4=O)cc3)c2nc1OC` [Compound 517, N-[4-[(6,7-dimethoxy-1,5-naphthyridin-4-yl)oxy]phenyl]-5-(4-fluoro-2-methylphenyl)-1,6-dimethyl-4-oxopyridazine-3-carboxamide]: the IC50 in assay [1] and in assay [2] was < 100 nM each time.

In the case of `COc1cc2nccc(Oc3ccc(NC(=O)c4c(C)nc(C)c(-c5ccc(F)cc5CO)c4O)cc3F)c2nc1OC` [Compound 518, N-[4-[(6,7-dimethoxy-1,5-naphthyridin-4-yl)oxy]-3-fluorophenyl]-5-[4-fluoro-2-(hydroxymethyl]phenyl]-4-hydroxy-2,6-dimethylpyridine-3-carboxamide], the IC50 in assay [1] and in assay [2] was < 100 nM in each case.

As to `COc1cc2nccc(Oc3ccc(NC(=O)c4cc(C)nn(-c5ccc(F)cc5)c4=O)cc3F)c2nc1OC` [Compound 519, N-[4-[(6,7-dimethoxy-1,5-naphthyridin-4-yl)oxy]-3-fluorophenyl]-2-(4-fluorophenyl)-6-methyl-3-oxopyridazine-4-carboxamide], the IC50 in assay [1] is < 100 nM; in assay [2], > 300 nM.

As to `COc1cc2nccc(Oc3ccc(NC(=O)c4cc(C)nn(-c5ccc(F)cc5)c4=O)cc3)c2nc1OC` [Compound 520, N-[4-[(6,7-dimethoxy-1,5-naphthyridin-4-yl)oxy]phenyl]-2-(4-fluorophenyl)-6-methyl-3-oxopyridazine-4-carboxamide], the concentration for half-maximal inhibition (IC50) in assay [1] is < 100 nM; in assay [2] it was > 300 nM.

Regarding `COc1cnc2c(Oc3ccc(NC(=O)c4cc(C)nn(-c5ccc(F)cc5)c4=O)cc3F)ccnc2c1` [Compound 521, N-[3-fluoro-4-[(7-methoxy-1,5-naphthyridin-4-yl)oxy]phenyl]-2-(4-fluorophenyl)-6-methyl-3-oxopyridazine-4-carboxamide], the IC50 in assay [1] was 100 to 300 nM; in assay [2], > 300 nM.

`COc1cnc2c(Oc3ccc(NC(=O)c4cc(C)nn(-c5ccc(F)cc5)c4=O)cc3)ccnc2c1` [Compound 522, 2-(4-fluorophenyl)-N-[4-[(7-methoxy-1,5-naphthyridin-4-yl)oxy]phenyl]-6-methyl-3-oxopyridazine-4-carboxamide]: the IC50 in assay [1] was < 100 nM; in assay [2] it was > 300 nM.

With `COc1cc2nccc(Oc3ccc(NC(=O)c4c(C)n(C)c(C)c(-c5ccc(F)cc5)c4=O)cc3)c2nc1OC` [Compound 523, N-[4-[(6,7-dimethoxy-1,5-naphthyridin-4-yl)oxy]phenyl]-5-(4-fluorophenyl)-1,2,6-trimethyl-4-oxopyridine-3-carboxamide], the IC50 in assay [1] was < 100 nM; in assay [2] it was > 300 nM.

In the case of `COc1cc2nccc(Oc3ccc(NC(=O)c4c(C)c(C)nn(-c5ccc(F)cc5)c4=O)cc3F)c2nc1OC` [Compound 524, N-[4-[(6,7-dimethoxy-1,5-naphthyridin-4-yl)oxy]-3-fluorophenyl]-2-(4-fluorophenyl)-5,6-dimethyl-3-oxopyridazine-4-carboxamide], the half-inhibitory concentration (IC50) was < 100 nM in assay [1] and 100 to 300 nM in assay [2].

Consider `COCc1nc(C)c(-c2ccc(F)cc2)c(O)c1C(=O)Nc1ccc(Oc2ccnc3ccc(OC)cc23)c(F)c1` [Compound 525, N-[3-fluoro-4-(6-methoxyquinolin-4-yl)oxyphenyl]-5-(4-fluorophenyl)-4-hydroxy-2-(methoxymethyl)-6-methylpyridine-3-carboxamide], for which the IC50 is < 100 nM in assay [1] and > 300 nM in assay [2].

For the molecule `CCc1nc(C)c(-c2ccc(F)cc2C)c(O)c1C(=O)Nc1ccc(Oc2ccnc3ccc(OC)nc23)cc1` [Compound 526, 2-ethyl-5-(4-fluoro-2-methylphenyl)-4-hydroxy-N-[4-[(6-methoxy-1,5-naphthyridin-4-yl)oxy]phenyl]-6-methylpyridine-3-carboxamide], the half-inhibitory concentration (IC50) in assay [1] was < 100 nM; in assay [2] it was > 300 nM.

`COc1cnc2c(Oc3ccc(NC(=O)c4ccnn(-c5ccc(F)cc5C)c4=O)cc3)ccnc2c1` [Compound 530, 2-(4-fluoro-2-methylphenyl)-N-[4-[(7-methoxy-1,5-naphthyridin-4-yl)oxy]phenyl]-3-oxopyridazine-4-carboxamide]: the figures for the IC50 in assay [1] and in assay [2] were < 100 nM and > 300 nM, respectively.

Turning to `COc1cc2nccc(Oc3ccc(NC(=O)c4cnc(SC(C)C)n(-c5ccc(F)cc5)c4=O)cc3)c2cc1OC` [Compound 539, N-[4-(6,7-dimethoxyquinolin-4-yl)oxyphenyl]-1-(4-fluorophenyl)-6-oxo-2-propan-2-ylsulfanylpyrimidine-5-carboxamide], the IC50 in assay [1] is < 100 nM; in assay [2], 100 to 300 nM.
